This note sets out measurements from PMC3873466 (PLoS ONE, 2013).

Where only a bound is given, the exact number is not on record here.

The target of experiment [1] is F. tularensis ParE (full length) (Francisella tularensis, UniProt A0A0J9WZF0). Nature of the experiment: biochemical.
Experiment [2] addresses E. coli GyrB (full length) (Escherichia coli, UniProt P0AES6). Nature of the experiment: biochemical.

Chain of F. tularensis ParE (full length) (A0A0J9WZF0 whole entry, looked up): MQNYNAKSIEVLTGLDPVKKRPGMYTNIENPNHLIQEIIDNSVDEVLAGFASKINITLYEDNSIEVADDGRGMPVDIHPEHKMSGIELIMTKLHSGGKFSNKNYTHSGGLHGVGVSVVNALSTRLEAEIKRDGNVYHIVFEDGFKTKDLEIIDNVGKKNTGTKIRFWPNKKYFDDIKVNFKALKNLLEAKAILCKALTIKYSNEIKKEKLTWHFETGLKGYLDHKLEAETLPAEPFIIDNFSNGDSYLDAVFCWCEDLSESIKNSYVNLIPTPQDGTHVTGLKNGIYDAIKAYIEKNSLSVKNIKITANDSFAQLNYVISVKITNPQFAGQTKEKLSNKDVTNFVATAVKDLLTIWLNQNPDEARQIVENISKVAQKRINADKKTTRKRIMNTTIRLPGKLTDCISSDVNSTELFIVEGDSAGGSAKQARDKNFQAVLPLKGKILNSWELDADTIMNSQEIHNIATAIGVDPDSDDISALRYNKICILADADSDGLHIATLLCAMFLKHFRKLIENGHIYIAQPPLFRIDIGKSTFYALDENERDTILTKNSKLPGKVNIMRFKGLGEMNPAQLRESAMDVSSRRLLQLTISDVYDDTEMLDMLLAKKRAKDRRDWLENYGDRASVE

In turn, `CNc1cc(F)cc2c1[nH]c1nc(Oc3cnc(C)nc3)nc(N3C[C@H]4CCN[C@H]4C3)c12` [C3, 6-fluoro-4-((3aR,6aR)-hexahydropyrrolo[3,4-b]pyrrol-5(1H)-yl)-N-methyl-2-((2-methylpyrimidin-5-yl)oxy)-9H-pyrimido[4,5-b]indol-8-amine] returned a Ki in experiment [1] of under 0.4 nM.
Regarding `CNc1cc(F)cc2c1[nH]c1nc(Oc3cnc(C)nc3)nc(N3C[C@@H]4[C@H](N)C[C@]4(C)C3)c12` [C4, 4-((1S,5R,6R)-6-amino-1-methyl-3-azabicyclo[3.2.0]heptan-3-yl)-6-fluoro-N-methyl-2-((2-methylpyrimidin-5-yl)oxy)-9H-pyrimido[4,5-b]indol-8-amine], the Ki in experiment [2] is 0.3 nM; in experiment [1], 0.8 nM.
